Data taken from article PMC4211885 (PLoS ONE, 2014).

Assays:
[1] = biological target: OA/TAMac receptor (Macrobrachium rosenbergii, UniProt D9U2B9); test: Agonist-evoked direct-current (ID) in Xenopus oocytes injected with OA/TAMac cRNA, two-electrode voltage clamp; assay type: cell-based; conditions: for ID response amplitude (mean ± s.d.): 10 µM, 10 second focal application, OA/TAMac and CFTR co-injected, n = 11 oocytes; for EC50: voltage clamped at −60 mV, approximate, estimated graphically from plot, read-out: EC50 of transmitter evoked direct-current (ID), normalized I/Imax; for Spearman rank-order correlation (rS) between rise rate and peak amplitude of evoked ID: all responses of the concentration series of Figure 3C
Chain of OA/TAMac receptor (D9U2B9 entry or part of it): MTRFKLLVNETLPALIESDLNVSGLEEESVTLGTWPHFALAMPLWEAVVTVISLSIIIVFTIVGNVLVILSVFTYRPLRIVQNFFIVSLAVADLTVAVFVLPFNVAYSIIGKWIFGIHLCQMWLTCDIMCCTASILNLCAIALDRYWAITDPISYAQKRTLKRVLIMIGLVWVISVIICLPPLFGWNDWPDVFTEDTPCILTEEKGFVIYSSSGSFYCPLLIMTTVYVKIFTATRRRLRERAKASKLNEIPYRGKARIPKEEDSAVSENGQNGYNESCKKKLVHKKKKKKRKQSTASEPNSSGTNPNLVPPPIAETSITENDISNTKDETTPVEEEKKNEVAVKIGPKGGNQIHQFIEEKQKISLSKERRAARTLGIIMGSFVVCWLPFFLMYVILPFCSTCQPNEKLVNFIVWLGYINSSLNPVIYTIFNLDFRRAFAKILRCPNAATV
From the text: We used Xenopus oocytes to express the prawn OA/TAMac receptor by injection of synthetic cRNA. The injection of foreign RNA into Xenopus oocytes typically induces the expression of multiple native chloride and potassium channels. Ligand evoked currents resulting from modulation of these channels have been used extensively in the characterization of heterologously expressed GPCRs. Oocytes are typically voltage clamped at a constant membrane potential around −60 mV and deviations in holding potential are measured. We refer to currents measured in this way as direct-currents (ID) (after) in order to distinguish them from the voltage-evoked transient current (ICl-T) described later.
Both flow rate and pulse duration were precisely controlled and comparisons were made relative to currents within single oocytes.
To characterize the dose dependence of ID, series of single transmitters were applied to different individual oocytes injected with OA/TAMac. Oocytes were voltage clamped at −60 mV and tyramine, (+/−)-octopamine, or dopamine were applied using 30 second perfusion-switched applications (see methods for more details).
(§1) Recordings were performed 1–3 days post-injection at room temperature (20–22°C). Currents were recorded under two-electrode voltage clamp using an Axoclamp 900a amplifier (Molecular Devices LLC, CA USA). A digidata 1440a analog to digital converter was used in conjunction with pCLAMP 10 software (Molecular Devices) for data acquisition and to generate voltage commands. For each step protocol or chemical application data were typically sampled at 5 KHz and filtered digitally at 1 KHz. For the duration of each experiment the current was also continuously sampled at 1 kHz using a separate minidigi 1A digitizer (Molecular Devices). Glass microelectrodes were pulled from filamented 1.2 mm thin wall borosilicate glass (World Precision Instruments, Sarasota, FL) using a Sutter Instruments P-97 puller. They were filled with 3 M KCl and had resistances of 0.8–2.0 MΩ. A silver chloride pellet immersed in 3 M KCl and connected to the bath via a 3% agar bridge made with 3 M KCl was used as the reference electrode.
Oocytes were continuously perfused at 1.5 mL/min either with ND 96 or test compounds dissolved in ND 96. Two types of application were used over the course of this study, a perfusion-switch or a focal application. In all cases solutions were delivered through a gravity fed system and switched using a computer controlled bank of pinch valves. Flow rate was regulated with a manual screw-type pinch valve.
For focal application a triple barrel pipette with three parallel independently switched channels was positioned about 1 mm from the surface of the oocyte, up-stream of a cross flow, at an approximate angle of 45 degrees (schematic shown in Fig. S8). Drugs were focally applied during continuous perfusion with ND 96.
In experiments where more than three drugs or concentrations were tested a precisely controlled 30 s perfusion-switch was used. Up to eight channels were connected to the bath via an 8-way manifold. There was an approximately 6–7 s delay for solutions to traverse the dead volume between the manifold and the bath.

[2] = tested on: Uninjected oocytes; test: Direct-current response of uninjected oocytes (control); assay type: cell-based, Xenopus laevis; conditions: n = 5
Method: We first tested receptor-injected oocytes for the occurrence of a response to biogenic amines. Applications of tyramine, octopamine, or dopamine produced an inward ID, typically ranging between 50 nA and 500 nA, under a constant holding potential of −60 mV. […] The amplitude of tyramine evoked ID at concentrations below 10 µM was greater than octopamine or dopamine within the same oocyte (Figs. 2A and S2). […] Instead it would rise and then begin to decline prior to the removal of agonist (dotted line). However, at high concentrations, above 100 µM, ID appeared to approach a stable plateau (Fig. 2B).
as §1
Supplementary file pone.0111314.s001.tif: Figure S1 Direct-current (ID) responses are specifically evoked by agonists in oocytes injected with OA/TAMac only. […] The trace is representative of an experimental set of 5 oocytes. Additional uninjected oocytes were tested with various experimental sets throughout the course of this study. (B) A typical preliminary test of agonist sensitivity. Injection of OA/TAMac cRNA alone is sufficient to confer sensitivity to OA. […] Applications are approximately 30 seconds in the upper trace. (C) The response of clonidine (CN), synephrine (SN), and OA within a single OA/TAMac injected oocyte. […] All drugs are applied for 30 seconds each as indicated by black rectangles. Agonist evoked currents are measured within oocytes relative to the octopamine response at 50 µM. The comparison is made to OA because the amplitude of the tyramine response becomes small at concentrations above 10 µM. This is due to a mechanistically undefined process not seen with any other agonist we tested. Note that TA is the first compound applied to a naïve oocyte in this example. […] (TIF) Click here for additional data file.

[3] = 30 second perfusion-switched applications, −60 mV

ID response amplitude (mean ± s.d.) ([1]; −60 mV) [nA]	Mean ID response amplitude in the agonist set ([1]; 50 µM, 30 second perfusion-switch, n = 6, standard deviation 32 nA) [nA]	EC50 ([1]; 30 second perfusion-switch) [µM]	Concentration at which evoked inward currents became visible/apparent [1, 3]	Spearman rank-order correlation (rS) between rise rate and peak amplitude of evoked ID [1]	Concentration at which the response reached maximum amplitude [1, 3]	SMILES	Response of uninjected oocytes [2]	Response of uninjected oocytes ([2]; listed as OA)	Response of uninjected oocytes ([2]; listed as TA)
75±55	119	~21	around 1 µM	0.93	–	NCC(O)c1ccc(O)cc1 (racemic) [octopamine, (+/−)-octopamine]	no response	do not respond	–
229±152	–	~0.2	around 0.1 µM	0.52	around 10 µM	NCCc1ccc(O)cc1 [tyramine]	no response	–	do not respond
